# In patent US12024515B2, “Kifunensine derivatives” (University of Kansas, priority 2021, dated 2024):
# Numbered stars: 1 amine (or outer) side, 2 acyl side, 3 side chain; on linkers, the order of the positions; unused ones are H or OH. Bridge positions count the residues as written; N and C are the ends. Square brackets hold non-standard residues; d marks the D form. Peptide text beside a SMILES is read from it. I, II: the chains in the order shown. Actinocin(9to1) = Cc1c2oc3c(C)ccc(C(=O)[*:1])c3nc-2c(C(=O)[*:2])c(N)c1=O; NMeV = CN[C@H](C(=O)O)C(C)C; Sar = CNCC(=O)O
# Assays:
# Raji cells [1] = assay: CD20 expression in Raji cells (flow cytometry of surface CD20, western blotting); assay type: cell-based; settings: for cell surface expression of CD20: 48 hours, flow cytometry, Kif 25 μM, Swain 25 μM, DMJ 1 mM, DIM 1 mM (FIG. 1A, 1C); for effect on Kif mediated CD20 upregulation: with Kif 25 μM, actinomycin D 10 μg/ml, cycloheximide 100 μg/ml, 48 hours (FIG. 2A)
# Description: (§1) FIGS. 1A-1E relate to kifunensine (“Kif”) induced expression of CD20. Raji cells were incubated with Kif for 48 hours and CD20 levels on the cell surface levels were analyzed by flow cytometry (FIG. 1A) and in whole cell lysate by western blotting (FIG. 1B). Raji cells were preincubated with Kif (25 μM), Swain (25 μM), DMJ (1 mM), and DIM (1 mM) or vehicle for 48 hours, and the cell surface levels of CD20 were analyzed by flow cytometry (FIG. 1C). Cells were incubated with Kif (25 μM) or vehicle for 48 hours and the cell surface levels of CD20 were analyzed by flow cytometry (FIG. 1D). Raji and rituximab resistant cells were incubated with Kif (25 μM) or vehicle for 48 hours and the cell surface levels of CD20 were analyzed by flow cytometry (FIG. 1E). Results are presented as a percentage of MFI of vehicle treated control cells (±SD). Statistical significance was determined with Kruskal-Wallis test, *P<0.033, **P<0.002, ****P<0.001, vs control.
# Staining of surface antigens. Cells were treated for 48 hours with the described inhibitors at the indicated concentrations or with DMSO controls. Cells were then harvested, washed twice with cold flow buffer (PBS (GIBCO) containing 0.5% BSA and 0.1% sodium azide (Fisher)), stained for 1 hour with 0.25 μg of anti-CD20 mAb (clone 2H7) conjugated with Super Bright 645 (eBioscience, ThermoFisher Scientific), then washed twice with flow buffer, and finally the cells were incubated with flow buffer containing 2.5 μg/mL 7-aminoactinomycin (7-AAD, eBioscience, ThermoFisher Scientific) for 10 minutes prior to being analyzed using an Attune NxT Flow Cytometer. CD20 expression was assessed in 7-AAD negative cells.
# [2] = tested on: patient derived primary CLL samples; assay: CD20 expression in patient derived primary CLL samples; assay type: cell-based
# Raji cells [3] = assay: Histone acetylation in Raji cells; assay type: cell-based
# [4] = tested on: Raji cells and Rituximab resistant Raji 4RH cells; assay: In vivo CD20 expression in subcutaneous Raji and Raji 4RH tumors (Western blot); settings: SCID mice, i.p., 10 mg/kg every second day over 8 days
# Description: In vivo increase in CD20 expression of Raji cells and Rituximab resistant Raji 4RH cells. A study was performed to determine whether Kif can increase the expression of CD20 on Raji cells and Rituximab resistant Raji 4RH cells that had been subcutaneously inoculated into the flank of six week old SCID mice. After inoculation, tumors were permitted to grow for 10 days prior to treatment initiation. The mice were randomly divided into control and treatment groups. Control group received PBS, while the treatment group received Kif (i.p., 10 mg/kg) every second day over an 8 day period. The mice were then scarified, tumors were harvested, and CD20 expression was assessed by Western blot.
# [5] = tested on: panel of cells lines representing diffuse large B cell lymphoma, Burkitt lymphoma, and follicular lymphoma; assay: Cell surface CD20 in a panel of B cell lymphoma cell lines (flow cytometry); assay type: cell-based; settings: 25 μM, 48 hours, flow cytometry (FIG. 1D)
# Description: as §1
# (§2) Staining of surface antigens. Cells were treated for 48 hours with the described inhibitors at the indicated concentrations or with DMSO controls. […] CD20 expression was assessed in 7-AAD negative cells.
# malignant B cell lines [6] = assay: ADCC assay with anti-CD20 antibody and CD16+ NK-92 effector cells; assay type: cell-based
# Description: FIGS. 3A-3B illustrate Kif potentiates the activity of anti-CD20 antibodies in vitro. Cells were incubated with Kif (25 μM) or vehicle control (Con) for 48 hours prior to rituximab mediated ADCC (FIG. 3A) or CDC (FIG. 3B). ADCC assays. Target cells were labelled with CellTrace Violet according to the manufacturer's instructions (ThermoFisher Scientific). In brief, 1 million target cells were washed twice with warm PBS, then stained with 5 μM CellTrace Violet in PBS for 20 minutes at 37° C. Then, 5 volume equivalents of complete media were added and the resulting solution was incubated for 10 minutes at 37° C. The cells were pelleted and washed twice with fresh complete media, and the cell suspension was adjusted to 800,000 cells/mL in complete media. 25 μL of the target cell suspension (i.e., 20,000 target cells) were then in added to a 96-well plate. 25 μL of rituximab solutions at 4× the indicated concentrations in complete media or complete media were added to experiment wells and the control wells respectively, and the resulting suspensions were incubated for 30 minutes at 37° C. Subsequently, 50 μL of a 1.6 million CD-16+ NK-92 cells/mL suspension in complete media (E:T 4:1, i.e., 80,000 effector cells) were added to experiment wells and control wells (i.e., no antibody) and the plate was incubated for 4 hours at 37° C. in a fully humidified atmosphere of 5% CO2. Subsequently, 6 uL of 2.5 μg/mL was added to each well and after 10 minutes the plate was analyzed using an Attune NxT Flow Cytometer. Target cell viability was accessed by determining the percentage of CellTrace Violet and 7-AAD positive cells. ADCC was calculated as follows: % ADCC=% 7-AAD positive target cells in experiment well—% 7-AAD positive target cells in control wells.
# [7] = tested on: rituximab resistant cell lines (Raji 2R, Raji 4RH, RL 4RH); assay: Cell surface CD20 in rituximab resistant cell lines (flow cytometry); assay type: cell-based; settings: 25 μM, 48 hours (FIG. 1E)
# Description: as §1, §2
# malignant B cell lines [8] = assay: CDC assay with anti-CD20 antibody and pooled human serum; assay type: cell-based
# Description: FIGS. 3A-3B illustrate Kif potentiates the activity of anti-CD20 antibodies in vitro. Cells were incubated with Kif (25 μM) or vehicle control (Con) for 48 hours prior to rituximab mediated ADCC (FIG. 3A) or CDC (FIG. 3B). CDC assays. 25 μL of the target cell suspension at 2 million cells/mL (i.e., 50,000 target cells) were added to a 96-well plate. 25 μL of antibody solutions at 4× the indicated concentrations in complete media or complete media were added to experiment wells and the control wells respectively, and the resulting suspensions were incubated for 30 minutes at 37° C. Subsequently, 50 μL of a 20% of pooled human serum in complete media were added to experiment wells and control wells (i.e., no antibody) and the plate was incubated for 1 hours at 37° C. in a fully humidified atmosphere of 5% CO2. Subsequently, 6 uL of 2.5 μg/mL was added to each well and after 10 minutes the plate was analyzed using an Attune NxT Flow Cytometer. Target cell viability was accessed by determining the percentage of 7-AAD positive cells. CDC was calculated as follows: % CDC=% 7-AAD positive target cells in experiment well—% 7-AAD positive target cells in control wells.
# MS4A1 = assay: CD20 mRNA (MS4A1) expression by RT-PCR; assay type: cell-based; settings: Raji cells, Kif 25 μM, 48 hours, RT-PCR (FIG. 2B)
# Description: FIGS. 2A-2B illustrates that Kif mediates CD20 upregulation occurs upstream of transcription and translation. Cells were incubated with Kif (25 μM), Kif (25 μM) plus actinomycin D (10 μg/ml), Kif (25 μM) plus cycloheximide (100 μg/ml), or vehicle control (Con) for 48 hours and the cell surface levels of CD20 were analyzed by flow cytometry (FIG. 2A). Cells were incubated with Kif (25 μM) or vehicle control (Con) for 48 hours and CD20 mRNA levels were analyzed by RT-PCR (FIG. 2B).
structure (smiles),measurement,setting,value
"OC[C@@H](O)[C@H]1NC[C@@H](O)[C@H]1O [DIM, 1,4-dideoxy-1,4-imino-D-mannitol]",cell surface expression of CD20,Raji cells [1]; Raji cells,significantly increase CD20 expression
"OC[C@H]1NC[C@@H](O)[C@@H](O)[C@@H]1O [DMJ, 1-deoxymannojirimycin hydrochlorie]",cell surface expression of CD20,Raji cells [1]; Raji cells,significantly increase CD20 expression
"C[C@@H]1C[C@@H]([C@H](O)CC2CC(=O)NC(=O)C2)C(=O)[C@@H](C)C1 [CHX, cycloheximide]",effect on Kif mediated CD20 upregulation,Raji cells [1],inhibit Kif mediated CD20 upregulation
"Cc1c2oc3c(C)ccc(C(=O)N[C@@H]4C(=O)N[C@H](C(C)C)C(=O)N5CCC[C@H]5C(=O)N(C)CC(=O)N(C)[C@@H](C(C)C)C(=O)O[C@@H]4C)c3nc-2c(C(=O)N[C@@H]2C(=O)N[C@H](C(C)C)C(=O)N3CCC[C@H]3C(=O)N(C)CC(=O)N(C)[C@@H](C(C)C)C(=O)O[C@@H]2C)c(N)c1=O [ACT-D, actinomycin D] (I: T[dV]P[Sar][NMeV] / II: T[dV]P[Sar][NMeV]; ester I:1-I:C, II:1-II:C; linker I:N-II:N via Actinocin(9to1))",effect on Kif mediated CD20 upregulation,Raji cells [1],inhibit Kif mediated CD20 upregulation
"O=C1N[C@@H]2[C@@H](O)[C@@H](O)[C@H](O)[C@@H](CO)N2C1=O [Kif, kifunensine]",CD20 expression in primary CLL samples,[2],increases CD20 expression in a dose-dependent and significant manner
same,histone acetylation,Raji cells [3],did not significantly alter histone acetylation
same,side effects,[4],no side effects were observed
same,CD20 expression in tumors,"[4]; Western blot, Raji and Raji 4RH",increases the expression of CD20
same,CD20 upregulation in panel of cell lines,[5],upregulates CD20
same,cell surface expression of CD20,Raji cells [1]; Raji cells,increases cell surface expression of CD20 in Raji cells in a concentration dependent manner
same,CD20 expression by western blotting,"Raji cells [1]; Raji cells, whole cell lysate, 48 hours (FIG. 1B)",increase CD20 expression was confirmed by western blotting
same,obinutuzumab potency in combination with Kif,malignant B cell lines [6]; ADCC,potency of obinutuzumab was also increased
same,sensitization of rituximab resistant cell lines to rituximab (ADCC),malignant B cell lines [6]; Raji 2R and Raji 4RH,sensitized to the action of rituximab
same,rituximab potency in ADCC in combination with Kif,"malignant B cell lines [6]; all cell lines tested, Kif 25 μM 48 hours before rituximab mediated ADCC (FIG. 3A)",potency of rituximab was increased
same,CD20 expression in rituximab resistant cell lines,[7],significantly increased CD20 expression
same,complement mediated killing without antibody,"malignant B cell lines [8]; Kif treated cells, absence of antibody",more susceptible to complement mediated killing in the absence of antibody
same,susceptibility to CDC with rituximab and ofatumumab,malignant B cell lines [8]; cells treated with Kif prior to CDC (FIG. 3B),rendered cells more susceptible
same,sensitization of rituximab resistant cells to CDC,"malignant B cell lines [8]; rituximab resistant cells, data not shown",not sensitized to CDC
same,expression of MS4A1,MS4A1,altered the expression of the MS4A1
"O[C@H]1[C@H]2[C@H](O)CCCN2C[C@H]1O [Swain, swainsonine]",cell surface expression of CD20,Raji cells [1]; Raji cells,significantly increase CD20 expression
